Source: patent US20250338851A1, “Boosted IPBC for Wet-State Bacterial Control” (Troy Technology II, Inc., priority 2021, published 2025)
Values joined by “and” are separate entries in the source; they are usually repeats but may differ in a detail not shown here. Equal entries are not always repeated. Where two headings read alike, the source gives them in different places. Residues, ends and D or L forms follow the SMILES beside them. *: point of attachment. βNA = c1ccc2cc(N*)ccc2c1

Experiments:
Format in all cases: cell-based
[1] = test system: Microbacterium sp. Troy JZ13; test: Minimum inhibitory concentration testing (microbroth dilution) and synergy index; conditions: 96 well microbroth dilution, MHB, 24 hours of incubation
Method: (§1) MICs were determined via microbroth dilution using the following specific test parameters:
(§2) Biocide dilutions were performed in 2-fold increments for each assay.
(§3) Synergy index (SI) scores were calculated according to the mass action equation below: […]
(§4) S.I.[MIC[A]in-blend/MIC[A]alone]+[MIC[B]in-blend/MIC[B]alone]
(§5) Combinations of ingredients were determined to be synergistic (S.I.<0.5), additive (S.I.>0.5 to 1), indifferent (S.I.>1 to <2) or antagonistic (S.I.>2), as defined by EUCAST guidelines. See European Committee for Antimicrobial Susceptibility Testing (EUCAST) of the European Society of Clinical Microbiology and Infectious Diseases (ESCMID). EUCAST Definitive Document E.Def 1.2, May 2000: Terminology relating to methods for the determination of susceptibility of bacteria to antimicrobial agents, Clin. Microbiol. Infect. Off Publ. Eur. Soc. Clin. Microbiol. Infect. Dis. […] Microbiol.

[2] = test system: S. aureus ATCC #6538; test: as above; conditions: 96 well microbroth dilution, MHB, 24 hours of incubation
Method: as §1, §2, §3, §4, §5

[3] = test system: E. aerogenes ATCC #13048; test: as above; conditions: 96 well microbroth dilution, MHB, 24 hours of incubation
Method: as §1, §2, §3, §4, §5

[4] = test system: E. coli ATCC #11229; test: as above; conditions: 96 well microbroth dilution, MHB, 24 hours of incubation
Method: as §1, §2, §3, §4, §5

[5] = test system: P. aeruginosa ATCC #10145; test: as above
Method: as §1, §2, §3, §4, §5

[6] = test system: Pseudomonas sp. Troy JZ103; test: as above; conditions: 96 well microbroth dilution, MHB, 24 hours of incubation
Method: as §1, §2, §3, §4, §5

[7] = test system: Burkholderia sp. Troy JZ2; test: as above
Method: as §1
(§6) Necessary organism dilutions via OD600 were calculated based on OD600 of 1.0 being equivalent to 8×10^8 CFU/mL. Biocide dilutions were performed in 2-fold increments for each assay.
as §3, §4
(§7) Combinations of ingredients were determined to be synergistic (S.I.<0.5), additive (S.I.>0.5 to 1), indifferent (S.I.>1 to <2) or antagonistic (S.I.>2), as defined by EUCAST guidelines. See European Committee for Antimicrobial Susceptibility Testing (EUCAST) of the European Society of Clinical Microbiology and Infectious Diseases (ESCMID). EUCAST Definitive Document E.Def 1.2, May 2000: Terminology relating to methods for the determination of susceptibility of bacteria to antimicrobial agents, Clin. Microbiol. Infect. Off Publ. Eur. Soc. Clin. Microbiol. Infect. Dis. 6, 503-508 (2000); Helander I. M., Mattila-Sandholm T., Fluorometric assessment of gram-negative bacterial permeabilization, J. Appl. Microbiol. 88:213-219 (2000).

[8] = test system: Bacillus sp. Troy JZ14; test: as above; conditions: 96 well microbroth dilution, MHB, 24 hours of incubation
Method: as §1, §6, §3, §4, §7

[9] = test system: Pseudomonas aeruginosa (ATCC #10145); test: Kill curve; conditions: for Kill curve CFU/mL: 0.2%
Method: Overnight cultures of Pseudomonas aeruginosa (ATCC #10145) growing in Tryptic Soy Broth were diluted to OD600=0.7 in Mueller Hinton Broth containing the indicated level of test compound. Samples containing IPBC were dosed with Polyphase PW40 (40% IPBC). Samples containing ZnO were dosed from a 50% ZnO dispersion (“1678-54”). Time points were collected by adding 1 mL of the sample into 9 mL of Dey-Engley Neutralizing Broth and performing a serial dilution in 1× Butterfield's Phosphate Buffer. Counts were obtained from pour plates in Tryptic Soy Agar after overnight incubation at 35° C.

[10] = test system: bacterial consortium: Alcaligenes faecalis (ATCC #25094), Enterobacter aerogenes (ATCC #13048), Escherichia coli (ATCC #11229), Pseudomonas aeruginosa (ATCC …); test: Bacterial challenge testing (standard); conditions: for Improvement in the bacterial resistance of paint containing IPBC/ZnO: paint challenge testing (Table A9)
Method: Bacterial and fungal challenge testing was performed following Troy's standard challenge test procedure SOP MI-07. […] Where indicated, additional bacterial organisms were added to the inoculum such that each organism in the inoculum provided equal CFU. […] Fungal consortia were prepared on Malt Agar slants and diluted to 10^6 spores/mL using a hemocytometer to count before use. Each mixture was prepared shortly before each inoculation. Inoculations were performed by adding 0.5 mL to 50 g of the indicated test sample, giving either ˜10^6 CFU/g of bacteria or ˜10^4 spores/g of fungi per challenge. Viability readings were performed at the indicated intervals following each challenge by applying a small amount of the test sample onto PCA (for bacteria) or Malt Agar (for fungus). Bacterial plates were then incubated at 32° C. for 3-5 days, and Malt Agar plates were incubated for 1 week at 28° C. before reading. Viability plates were evaluated with a semi-quantitative scale. This scale estimates the approximate CFU/g by visual assessment of the colony density along the streak lines. Readings are recorded as the average of two duplicate semi-quantitative readings from “0” to “4.” Samples were mixed before every viability reading and after every inoculation.
(§8) Challenge test scoring was done by the weighted sum of squares for each of the twelve data points collected for each test sample. The weighting was done proportional to the streak day, with day 1 weighted at 10%, day 2 weighted at 20%, and day 3 weighted at 70%. The sum of all 12 values is then taken and divided by the score of the unprotected sample to achieve the total growth score. The reported “weighted performance” score is 1 minus the growth score.

[11] = test system: bacterial consortium: Alcaligenes faecalis, Enterobacter aerogenes, Escherichia coli, Pseudomonas aeruginosa, Staphylococcus aureus, Microbacterium …; test: Bacterial challenge testing (industrial strength)
Source text: Where industrial strength inoculations are indicated, bacterial challenge testing organisms were Alcaligenes faecalis (ATCC #25094), Enterobacter aerogenes (ATCC #13048), Escherichia coli (ATCC #11229), Pseudomonas aeruginosa (ATCC #10145), Staphylococcus aureus (ATCC #6538), Microbacterium paraoxydans (Troy Isolate), Burkholderia cenocepacia (Troy Isolate), Citrobacter werkmanii (Troy Isolate), and Acinetobacter sp. (Troy Isolate). All bacteria were blended from separate overnight cultures grown in Tryptic Soy Broth (TSB) and mixed at equal CFU via OD600 measurements, then diluted to OD600=7 (˜10^9 CFU/mL) to create the final bacterial consortium. Each mixture was prepared shortly before each inoculation. Inoculations were performed by adding […] to 50 g of the indicated test sample to give ˜10^7 CFU/g per inoculation. Viability readings were performed at the indicated intervals following each challenge by applying a small amount of the test sample onto PCA. Plates were then incubated at 32° C. for 3-5 days before being evaluated with a semi-quantitative scale. This scale estimates the approximate CFU/g by visual assessment of the colony density along the streak lines. Readings are recorded as the average of two duplicate semi-quantitative readings from “0” to “4.” Samples were mixed before every viability reading and after every inoculation.
as §8

[12] = test system: Pseudomonas aeruginosa (ATCC #10145); test: NPN uptake assay (membrane permeability); conditions: 1% w/v solutions
Method: The NPN uptake assay was performed roughly as previously described. See Helander I. M., Mattila-Sandholm T., Fluorometric assessment of gram-negative bacterial permeabilization, J. Appl. Microbiol. […] Next, the cells were centrifuged (10,000 g, 5 minutes) washed twice with assay buffer (5 mM HEPES-KOH, 5 mM glucose, pH 7.2) and resuspended in assay buffer to OD600=1. 100 microliters of washed cells in assay buffer was then mixed with 100 microliters of assay buffer containing 20 μM NPN in a 96-well optical bottom black plate (Thermo). Two microliters of the test substances were then added, briefly mixed, and then placed in a plate reader to monitor fluorescence (excitation 350 nm, emission 420 nm) at one minute intervals for 10 minutes. Controls containing no cells or water-only were included in the assay. NPN uptake was calculated using the formula below at each time point and averaged over all time-points and three replicates.

[13] = test system: Pseudomonas aeruginosa (ATCC #10145); test: Growth curves (OD600)
Method: To generate growth curves, overnight cultures of Pseudomonas aeruginosa (ATCC #10145) from Plate Count Agar were lifted and resuspended in dH2O and adjusted to OD600=0.01 with sterile Mueller Hinton Broth (MHB). This culture was distributed into wells of an uncovered 96-well plate with the indicated biocides. The OD600 was then measured initially and then every 30′ for 16 hours at 37° C. with constant double orbital shaking. Due to the opacity of the samples dosed with some test compounds, the curves were generated by background subtracting from wells containing sterile MHB and then subtracted from their initial (t=0) measurement.

[14] = test system: Pseudomonas aeruginosa (ATCC #10145); test: Checkerboard assay; conditions: alone, 100-500 ppm; 24 hours of incubation
Method: The checkerboard assay was performed by separately dosing Polyphase PW40 (40% IPBC) and a 20% nanoparticle ZnO dispersion (Sigma #721077) into 100 microliters of Mueller Hinton Broth containing ˜1.0*10^5 CFU/mL of Pseudomonas aeruginosa (ATCC #10145). The plate was then incubated overnight at 37° C. with constant double orbital shaking. The next day, the dispersions were allowed to settle on the bench for 2 hours and the plate was photographed. Growth in this assay was defined as the turbidity of the supernatant.

[15] = Staphylococcus aureus, ATCC6538, read-out: MIC
[16] = Klebsiella aerogenes, ATCC13048, read-out: MIC
[17] = Escherichia coli, ATCC11229, read-out: MIC
[18] = Pseudomonas aeruginosa, ATCC10145, 24 h
[19] = Joint Compound, lowest concentration free of detectable bacterial growth 7 days following the 4th inoculation
[20] = Interior Paint #1, lowest concentration free of detectable bacterial growth 7 days following the 4th inoculation
[21] = 96 well microbroth dilution, MHB, 24 hours of incubation
[22] = control, without PAβN (FIG. 1C)

CCCCC(O)CO (stereo not drawn) [1,2-hexanediol]
MIC ([1]; read-out: MIC): 6000 µg/mL
MIC [2, 15]: 24000 µg/mL
MIC [3, 16]: 10000 µg/mL
MIC [4, 17]: 6000 µg/mL
MIC [5, 18]: 6000 µg/mL
MIC ([6]; Pseudomonas, read-out: MIC): 5000 µg/mL
MIC ([7]; Burkholderia, 24 h): 5000 µg/mL
MIC ([8]; Bacillus, read-out: MIC): 10000 µg/mL
Killing of Pseudomonas (kill curve) ([9]; 1,2-hexanediol added to IPBC/ZnO (FIG. 5)): fully capable of killing Pseudomonas
Pass Level [10, 19]: 1.2 % w/w
Pass Level (ppm a.i.) [10, 19]: 11,880 ppm a.i.
Pass Level [11, 20]: Not Effective
Pass Level (ppm a.i.) [11, 20]: > 12,000 ppm a.i.

CC(=O)OCC(COC(C)=O)OC(C)=O [Triacetin]
Improvement in the bacterial resistance of paint containing IPBC/ZnO [10]: some improvement

CCCCCCOCCOCCO [Hexyl Carbitol]
MIC [1]: 1482 ppm
MIC [2]: 11857 ppm
MIC [4]: 11857 ppm
MIC [5, 21]: 11856 ppm
MIC [6]: 5929 ppm
MIC [7, 21]: 1853 ppm
MIC [8]: 4447 ppm
Membrane disruption potential against Pseudomonas (NPN assay) [12]: highest membrane disruption potential
Improvement in the bacterial resistance of paint containing IPBC/ZnO [10]: highly similar performance as 1,2-hexanediol

CCCCNC(=O)OCC#CI [IPBC, 3-iodoprop-2-yn-1-yl butylcarbamate]
MIC ([1]; read-out: MIC): 11 µg/mL
MIC [2, 15]: 450 µg/mL
MIC [3, 16]: 1000 µg/mL
MIC [4, 17]: 2400 µg/mL
MIC [5, 18]: ≥ 400 µg/mL
MIC ([6]; Pseudomonas, read-out: MIC): 300 µg/mL
MIC ([7]; Burkholderia, 24 h): 63 µg/mL
MIC ([8]; Bacillus, read-out: MIC): 9 µg/mL
Pseudomonas growth ([13]; 400 ppm IPBC (0.1% w/w Polyphase PW40) with ≥0.25 mM PAβN, 16 hours): complete growth inhibition
Pseudomonas growth ([13]; 400 ppm alone, 16 hours): growth
Pseudomonas growth ([13]; IPBC with PAβN in the presence of 1 mM MgCl2): weaker IPBC potentiation
Pseudomonas growth [13, 22]: no Pseudomonas inhibition
Kill curve CFU/mL ([9]; 0 hrs): 5.40E+06 CFU/mL and 7.00E+06 CFU/mL
Kill curve CFU/mL ([9]; 2 hrs): 7.10E+06 CFU/mL and 7.30E+06 CFU/mL
Kill curve CFU/mL ([9]; 24 hrs): 1.33E+10 CFU/mL and 1.45E+10 CFU/mL
Kill curve CFU/mL ([9]; 48 hrs): 4.90E+09 CFU/mL and 3.80E+09 CFU/mL
Turbidity of wells (growth) [14]: turbid

[O]=[Zn] [ZnO, zinc oxide]
MIC [1]: 3206 ppm
MIC [2]: 250 ppm
MIC [3]: 2400 ppm
MIC [4]: 2400 ppm
MIC [5, 21]: ≥2400 ppm
MIC [6]: 3400 ppm
MIC [7, 21]: 2000 ppm
MIC [8]: 3212 ppm
Kill curve CFU/mL ([9]; 0 hrs): 5.40E+06 CFU/mL and 7.00E+06 CFU/mL
Kill curve CFU/mL ([9]; 2 hrs): 7.10E+06 CFU/mL and 7.30E+06 CFU/mL
Kill curve CFU/mL ([9]; 24 hrs): 1.33E+10 CFU/mL and 1.45E+10 CFU/mL
Kill curve CFU/mL ([9]; 48 hrs): 4.90E+09 CFU/mL and 3.80E+09 CFU/mL
Kill of the inoculum ([11]; paint, 2.5% w/w (10,000 ppm), 7 days after challenge): complete kill

N=C(N)NCCC[C@H](NC(=O)[C@@H](N)Cc1ccccc1)C(=O)Nc1ccc2ccccc2c1 [PAβN, phenylalanine-arginine beta-napthylamide] (H-Phe-Arg-βNA)
Impact on Pseudomonas growth ([13]; 0.125-0.5 mM PAβN alone, 16 hours at 37° C.): minimal impact

[Cl-].[Cl-].[Mg+2] [MgCl2]
Pseudomonas growth [13, 22]: no Pseudomonas inhibition

CCCCCCOCCO [Hexyl Cellosolve]
Membrane disruption potential against Pseudomonas (NPN assay) [12]: highest membrane disruption potential

CC(C)C(=O)OCC(C)(C)C(O)C(C)C (stereo not drawn) [Texanol]
Membrane disruption potential against Pseudomonas (NPN assay) [12]: highest membrane disruption potential
